We go through 5 compounds from patent US20100087474A1, “MATERIALS AND METHODS FOR ENHANCED DEGRADATION OF MUTANT PROTEINS ASSOCIATED WITH HUMAN DISEASE” (UNIVERSITY OF FLORIDA, priority 2005, published 2010).

Data set [1] has as its system HEK293 cells expressing P23H opsin. The data set is described as follows: immunocolocalization of autophagosome markers Atg7 and Atg8 with P23H opsin. Conditions: FTI-277 treatment versus untreated cells in complete medium. In kind it is cell-based, human. The method, then: Cells were grown on glass coverslips and fixed in 4% paraformaldehyde. Following quenching with 50 mM NH4Cl, cells were washed with PBS and incubated for 1 hour with the indicated primary antibody at room temperature. Cells were washed five times in PBS and incubated with a secondary antibody (TRITC- and FITC-conjugate) for 1 hour. The cells were washed again and mounted with Vectashield containing DAPI. Primary antibodies included antibodies to LC3, LAMP-1, Atg7 (Dr Dunn), opsin, Atg7^20, Atg8 and HA-tag. The cells were then observed using a Zeiss Axiophot microscope.
(§1) Staining with lysotracker (Molecular Probes) was also performed on live cells at 37° C. Confocal imaging was performed using the Leica TCS SP2 AOBS Spectral Confocal Microscope at 63× magnification.

The test system is the same in data set [2]. Kind of data set: lysotracker staining of lysosomal vacuoles. The data set is classed as cell-based, human. The method, then:
as §1

Data set [3] has the same test system. Kind of data set: electron microscopy morphometric quantification of autophagic vacuoles (AVs). The data set is classed as cell-based, human. Conditions: FTI-277 for two hours and six hours. The method, then: P23H opsin-expressing cells were grown on ACLAR sheets in a 24-well plate. […] Following a wash with PBS, cells were fixed with 2% paraformaldehyde, 2% glutaraldehyde in 0.1M sodium cacodylate buffer, pH 7.4 for 30 minutes at 4° C. and processed for CMPase cytochemistry as previously described (31). Morphometric quantification of AVs was done on 20 electron micrographs per condition using Image J software T-test analysis was performed and P value (two-tailed significance) under or equal to 0.05 was considered significant (marked with asterisk).

The test system of the next data set is Akt. Kind of data set: Akt phosphorylation in HEK293 cells (immunoblot). The data set is classed as cell-based, human. Conditions: FTI-277 treatment. The protocol:
(§2) Cell lysates were electrophoresed on 10% SDS polyacrylamide gels and transferred onto Immobilon-NC (Millipore, Billerica, Mass.) nitrocellulose membranes. The membranes were incubated at room temperature for 1 hour with a commercially available blocking buffer (Li-Cor, Lincoln, Nebr.) diluted 1:1 in PBST (PBS with 0.1% triton X-100, pH 7.4), followed by a 1 hour incubation with the indicated primary antibody. The blots were washed three times for 5 minutes each in PBST, and incubated for 1 hour with a true near infrared dye, IRDye800-conjugated secondary antibody (Rockland Immunochemicals Inc., Gilbertsville, Pa.). Finally the membranes were again washed three times with PBST and scanned in an Odyssey infrared scanner (Li-Cor, Lincoln, Nebr.). Quantitations on immunoblots were performed using Licor software. Primary antibodies included antibodies to opsin, HA-tag (Covance Princeton, N.J.), mTOR, phosphorylated mTOR (Upstate Charlottesville, Va.), calnexin, hsp70 (Stressgen, Victoria, BC, CA), Bip (BD PharMingen, San Diego, Calif.) to tubulin (Sigma Chemical, St. Louis, Mo.), 1D4 (University of British Columbia), Akt, phospho-Akt, S6K, phospho-S6K, MAPK and phosphor-MAPK (Cell Signaling Technology, Beverly, Mass.).
(§3) FTI-277 (Calbiochem) was used at 50 μM. […]
Background: In western blotting, separated proteins are transferred to a membrane and probed.

The next data set relates to S6 kinase. The data set is described as follows: S6 kinase phosphorylation in HEK293 cells (immunoblot). The following applies: within two hours of treatment. In kind it is cell-based, human. The method, then: as §2, §3
In a further data set the test system is MAPK. The data set is described as follows: MAPK phosphorylation in HEK293 cells (immunoblot). The data set is classed as cell-based, human. The following applies: FTI-277 treatment. The protocol:
as §2, §3

The next data set relates to P23H opsin. The data set is described as follows: P23H opsin degradation in HEK293 stable cells (immunoblot). The data set is classed as cell-based, human. Conditions: for loss of P23H opsin: after 12 hours, FTI-277 50 μM, rapamycin 50 nM; for effect of inhibitor on FTI-277 induced P23H opsin degradation: in the presence of FTI-277, 3MA 10 mM, MG132 25 μM; for effect of inhibitor on P23H opsin degradation: inhibitor added at autophagy induction, amino acid depleted cells. The method, then:
Wild-type and P23H opsin were expressed in HEK293 tetracycline-inducible stable cell lines. The cells were grown in Dulbecco's modified Eagle's medium containing high glucose (Invitrogen, San Diego, Calif.) supplemented with 10% heat inactivated fetal bovine serum (Sigma) with antibiotic-antimycotic solution (Invitrogen, San Diego, Calif.), blasticidin (Cayla, Toulouse, France), zeocin (Invitrogen, San Diego, Calif.) at 37 C in the presence of 5.0% CO2. Opsin synthesis in cells was induced by addition of tetracycline (1 μg/ml). Baby hamster kidney (BHK) cell lines stably expressing the wild type and ΔF508 CFTR variant with a C-terminal HA epitope (CFTR-HA) (See Sharma et al., J. Cell Biol. 2004 164(6):923-33). The cells were grown in DMEM/F12 (Invitrogen, San Diego, Calif.) 1:1 ratio with 10% FBS at 37° C. in the presence of 5.0% CO2.
Autophagy was induced in cells by incubating them in amino-acid depleted medium or treating them with rapamycin ([…]), or both. Cells were incubated under autophagy inducing conditions for two, six, or twelve hours. At the indicated time point the cells were lysed in 1% n-dodecyl-β-maltoside (DM) (Anatrace, Maumee, Ohio) in the presence of protease inhibitors (complete protease inhibitor mixture tablets (Roche Molecular Biochemicals, Mannheim, Germany) for 1 hour at 4° C. The cells were centrifuged at 36,000 rpm in a Beckman ultracentrifuge for 30 minutes at 4 C. The lysate was collected and immunoblotting was performed.
as §2
Following tetracycline wash off, cells were treated for 0, 2, 6 and 12 hours then lysed in phosphate buffer containing 1% n-dodecyl-β-maltoside (DM) (Anatrace) in the presence of protease inhibitors (complete protease inhibitor mixture tablets; Roche Molecular Biochemicals) for 1 hour at 4° C. As a positive control for autophagy, cells were treated with rapamycin (50 nM), following tetracycline wash off. The lysates were centrifuged at 36,000 rpm in a Beckman ultracentrifuge for 10 min at 4C. The supernatant was collected and immunoblotting was performed. 3-methyladenine (3MA), which blocks autophagy (10 mM) (Sigma Chemical (St. Louis, Mo.)) and MG132 (25 μM) (Sigma Chemical (St. Louis, Mo.)) were also used.

The test system of another data set is mTOR. Kind of data set: mTOR phosphorylation in opsin-expressing HEK293 cells (immunoblot). In kind it is cell-based, human.
In data set [4] the test system is Bip, calnexin, calreticulin, Hsp70, Hsp90. The data set is described as follows: UPR/HSR chaperone levels in opsin-expressing HEK293 cells (immunoblot). The data set is classed as cell-based, human. Conditions: FTI-277 treatment, time-dependent. The protocol:
as §2, §3

Data set [5] has as its system HuH7 hepatoma cells stably expressing GFP-LC3. Kind of data set: GFP-LC3 localization in HuH7 hepatoma cells (confocal). In kind it is cell-based. The following applies: FTI-277 treated versus fed cells. The protocol:
HuH7 hepatoma cells were stably transfected with pGFP-LC3 (Ogawa et al., Science 307(5710): 727-731, 2005) using a lipid optimization kit, the PerFect lipid (pFx-3), purchased from Invitrogen (San Diego, Calif.). PFX-3 (Invitrogen) according to manufacturer's protocols. Those colonies that grew in the presence of 0.5 mg/ml G418 were then isolated, amplified, and screened for GFP-LC3 expression by fluorescence microscopy and Western blotting.
as §1

The next data set concerns Rheb. The following applies: Basso et al., 2005; cited from earlier work.
The subject of data set [6] is P23H heterozygous mutant mice. Kind of data set: ERG retinal function in P23H mouse model of retinitis pigmentosa. In kind it is in vivo. Conditions: rapamycin once per week from twenty-one days old; course of three months. The method, then:
Mice expressing the P23H opsin protein are described by Liu et al., Journal of Cell Science 110, 2589-2597 (1997).
Heterozygous P23H transgenic mice were treated once per week with rapamycin beginning when the mice were twenty-one days old.
(§4) The mice are dark adapted twenty-four hours prior to ERG. A mix of ketamine and xylazine was used to anesthestize mice. Dosage was determined by weight. Mouse eyes were numbed with proparacaine drops and dilated with Ak-dilate. The mouse was then placed on the machine (UTAS-E 2000) a ground electrode was inserted into the hind limb, another electrode was inserted into the neck, and a pair of electrode was used to record the ERG from each eye. After getting a baseline reading, the ERG was measured at 20, 10 and 0 dB. Monthly ERG's were measured and the B-wave amplitude was determined.

For data set [7], the system named is Abcr heterozygous mutant mice. Kind of data set: ERG retinal function in mouse model of macular degeneration. The following applies: rapamycin 20 mg/kg once per week intraperitoneal from four months old. The data set is classed as in vivo. The method, then:
abcr+/− mice are described by Mata et al., Investigative Opthalmology and Visual Science. 2001; 42:1685-1690.
abcr+/− mice were treated with 20 mg/kg of rapamycin once per week beginning when the mice were four months old. The rapamycin was administered by intraperitoneal injection.
as §4

The conditions of data set [8]: cited from earlier work.

Molecules are shown by their SMILES. Several values for one entry are separate records, joined by “and”; a condition that tells them apart may be missing. Equal values may be shown once. Entries after “also recorded” stand apart in the source; their conditions may differ. Residues, ends and D or L forms follow the SMILES beside them. *: point of attachment. Cbz = O=C(OCc1ccccc1)*

Procedure for mTOR: Cell lysates were electrophoresed on 10% SDS polyacrylamide gels and transferred onto Immobilon-NC (Millipore, Billerica, Mass.) nitrocellulose membranes. The membranes were incubated at room temperature for 1 hour with a commercially available blocking buffer (Li-Cor, Lincoln, Nebr.) diluted 1:1 in PBST (PBS with 0.1% triton X-100, pH 7.4), followed by a 1 hour incubation with the indicated primary antibody. The blots were washed three times for 5 minutes each in PBST, and incubated for 1 hour with a true near infrared dye, IRDye800-conjugated secondary antibody (Rockland Immunochemicals Inc., Gilbertsville, Pa.). Finally the membranes were again washed three times with PBST and scanned in an Odyssey infrared scanner (Li-Cor, Lincoln, Nebr.). Quantitations on immunoblots were performed using Licor software. […]

Regarding `COC(=O)[C@H](CCSC)NC(=O)c1ccc(NC[C@@H](N)CS)cc1-c1ccccc1` [FTI-277, methyl {N-[2-phenyl-4-N[2(R)-amino-3-mercaptopropylamino]benzoyl]}-methionate], the “colocalization of Atg7 and Atg8 with P23H opsin” value in data set [1] is recorded as “dramatic increase”. For the same compound, the “lysosomal numbers and size (lysotracker)” value in [2] is on record as “increase”. Further, the “increase in the fractional volume of AVs compared to untreated cells” value in data set [3] is 4 to 6 fold and 6 fold. In addition, the “stimulation of Akt phosphorylation” value in the data set with Akt is reported as “unaffected”. Further, in the data set with S6 kinase, the “phosphorylation of S6 kinase” value was “dramatically reduced”. In addition, in the data set with MAPK, the MAPK phosphorylation entry is “slight increase”. Also, the “degradation of P23H opsin” value is listed as “No effect” in the data set with P23H opsin (FTI-277 at 10 μM) and “time-dependent degradation” in the data set on P23H opsin (FTI-277 at 50 μM). The “loss of P23H opsin” value with P23H opsin amounted to 50%. The “degradation of P23H rhodopsin (Western blot)” value with P23H opsin (fed cells treated with 10 μM or 50 μM FTI277 (FIG. 8)) is recorded as “induced the rapid degradation”. Also, in the data set with mTOR (FTI-277 in combination with amino acid and serum starvation), the “dephosphorylation of mTOR” value is “further enhanced”. The “phosphorylation of mTor” value in the data set on mTOR (FTI-277 treatment, time course of twelve hours) is “effectively inhibited”. In data set [4], the “levels of calnexin, calreticulin, Hsp70 and Hsp90 (UPR and HSR)” value was “did not affect”. The GFP-LC3 localization entry in data set [5] is on record as “localized to numerous structures consistent with its association with autophagic vacuoles”. The “prenylation of Rheb” value with Rheb was “completely block”.

As for `Cn1cnc(N)c2ncnc1-2` [3-MA, 3-methyladenine], in the data set on P23H opsin, the “effect of inhibitor on FTI-277 induced P23H opsin degradation” value is recorded as “prevented degradation of opsin; also recorded: inhibited P23H opsin degradation” and the “effect of inhibitor on P23H opsin degradation” value is given as “inhibited P23H degradation”.

Regarding `CC(C)C[C@@H](C=O)NC(=O)[C@H](CC(C)C)NC(=O)[C@H](CC(C)C)NC(=O)OCc1ccccc1` [MG132] (Cbz-Leu-Leu-Leu-aldehyde), in the data set with P23H opsin, the “effect of inhibitor on FTI-277 induced P23H opsin degradation” value is “did not interfere” and the “effect of inhibitor on P23H opsin degradation” value is on record as “no effect”.

With `CO[C@H]1C[C@@H]2CC[C@@H](C)[C@@](O)(O2)C(=O)C(=O)N2CCCC[C@H]2C(=O)O[C@H]([C@H](C)C[C@@H]2CC[C@@H](O)[C@H](OC)C2)CC(=O)[C@H](C)/C=C(\C)[C@@H](O)[C@@H](OC)C(=O)[C@H](C)C[C@H](C)/C=C/C=C/C=C/1C` [rapamycin], the “retinal function (ERG)” value in data set [6] is listed as “rescued retinal function; also recorded: enhances retinal function”; in data set [7], “rescues retinal function; also recorded: enhances retinal function”. The “absorption after oral administration” value in [8] is “absorbed rapidly and completely”. Besides, the “loss of P23H opsin” value in the data set with P23H opsin is given as 70%.

On to `CC1=C(/C=C/C(C)=C/C=C/C(C)=C/C=O)C(C)(C)CCC1` [11-cis retinal], for which, in the data set on P23H opsin (11-cis retinal administered at the time autophagy was induced), the “levels of P23H degradation” value is “not altered”. In the data set on P23H opsin (11-cis retinal during amino acid depletion), the “P23H protein degradation profile versus wild-type opsin and untreated P23H cells” value is “intermediate degradation profile”.
